# Target: recombinant Human Phosphodiesterase B2 (PDE4B2) (Homo sapiens, UniProt Q07343)
# Assay: Human Phosphodiesterase B2 Radiometric Assay
# Assay type: biochemical
# Settings: 0.1 μg/mL recombinant PDE4B2; preincubated at 30 C for 30 min; [3H]cyclic AMP 8 nM, stopped after 20 min; yttrium silicate SPA beads; read-out: PDE4B2 pIC50 (converted)
# Outline: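 Compounds preincubated 30 min at 30 C with 0.1 μg/mL recombinant PDE4B2 in 50 mM HEPES pH 7.5, 8.3 mM MgCl2, 1.7 mM EGTA, 0.01% Brij 35.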
# recombinant Human Phosphodiesterase B2 (PDE4B2), sequence (Q07343 1-564 isoform Q07343-2): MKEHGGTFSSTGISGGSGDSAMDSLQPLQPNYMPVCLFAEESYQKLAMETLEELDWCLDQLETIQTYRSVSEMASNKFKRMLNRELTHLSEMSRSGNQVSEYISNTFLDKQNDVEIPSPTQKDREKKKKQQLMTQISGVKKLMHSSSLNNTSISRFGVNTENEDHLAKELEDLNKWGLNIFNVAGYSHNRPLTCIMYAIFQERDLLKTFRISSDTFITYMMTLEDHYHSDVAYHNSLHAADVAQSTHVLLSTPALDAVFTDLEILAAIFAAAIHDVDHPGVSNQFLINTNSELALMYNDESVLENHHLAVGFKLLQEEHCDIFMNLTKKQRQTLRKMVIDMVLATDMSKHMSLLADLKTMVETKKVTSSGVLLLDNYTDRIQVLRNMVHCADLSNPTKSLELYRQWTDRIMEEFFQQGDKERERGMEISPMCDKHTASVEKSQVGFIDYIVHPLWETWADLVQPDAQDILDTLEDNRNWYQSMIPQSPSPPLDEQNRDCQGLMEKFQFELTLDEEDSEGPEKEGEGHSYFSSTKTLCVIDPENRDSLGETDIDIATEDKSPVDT
row,IC50 [pM],Structure (SMILES)
1,631,"CN1CCCN(Cc2cc(O)ccc2-c2cccc(Oc3ncc(F)cc3C(=O)N[C@H]3CC[C@@H](NC(=O)c4ccc5ccccc5n4)CC3)c2)CC1 [Example 27, N-((1s,4s)-4-(5-fluoro-2-(4′-hydroxy-2′-((4-methyl-1,4-diazepan-1-yl)methyl)biphenyl-3-yloxy)nicotinamido)cyclohexyl)quinoline-2-carboxamide]"
2,100,"Cc1cccc2nc(C(=O)N[C@H]3CC[C@@H](NC(=O)c4cc(F)cnc4Oc4cccc(-c5ccc(CCCN6CCNCC6)cc5)c4)CC3)cn12 [Example 93, N-((1s,4s)-4-(5-fluoro-2-(4′-(3-(piperazin-1-yl)propyl)biphenyl-3-yloxy)nicotinamido)cyclohexyl)-5-methylimidazo[1,2-a]pyridine-2-carboxamide]"
3,31.6,"C[C@@H]1CN(CCCc2ccc(-c3cccc(Oc4ncc(F)cc4C(=O)N[C@H]4CC[C@@H](NC(=O)c5csc(CO)n5)CC4)c3)cc2)C[C@H](C)N1 [Example 149, N-((1s,4s)-4-(2-(4′-(3-((3S,5R)-3,5-dimethylpiperazin-1-yl)propyl)biphenyl-3-yloxy)-5-fluoronicotinamido)cyclohexyl)-2-(hydroxymethyl)thiazole-4-carboxamide]"
4,50.1,"C[C@@H]1CN(Cc2ccc(-c3cccc(Oc4ncc(F)cc4C(=O)N[C@H]4CC[C@@H](NC(=O)c5cc6n(n5)CCCC6)CC4)c3)c(CN3CCOCC3)c2)C[C@H](C)N1 [Example 124, N-((1s,4s)-4-(2-(4′-(((3S,5R)-3,5-dimethylpiperazin-1-yl)methyl)-2′-(morpholinomethyl)biphenyl-3-yloxy)-5-fluoronicotinamido)cyclohexyl)-4,5,6,7-tetrahydropyrazolo[1,5-a]pyridine-2-carboxamide]"
5,631,"CN(C)CCN(C)Cc1ccc(-c2cccc(Oc3ncc(F)cc3C(=O)N[C@H]3CC[C@@H](NC(=O)c4cn5c(n4)CCCC5)CC3)c2)cc1 [Example 105, N-((1s,4s)-4-(2-(4′-(((2-(dimethylamino)ethyl)(methyl)amino)methyl)biphenyl-3-yloxy) 5-fluoronicotinamido)cyclohexyl)-5,6,7,8-tetrahydroimidazo[1,2-a]pyridine-2-carboxamide]"
6,20,"C[C@@H]1CN(Cc2ccc(-c3cccc(Oc4ncc(F)cc4C(=O)N[C@H]4CC[C@@H](NC(=O)c5cc6n(n5)CCCC6)CC4)c3)c(CN3CCSCC3)c2)C[C@H](C)N1 [Example 188, N-((1s,4s)-4-(2-(4′-(((3S,5R)-3,5-dimethylpiperazin-1-yl)methyl)-2′-(thiomorpholinomethyl)biphenyl-3-yloxy)-5-fluoronicotinamido)cyclohexyl)-4,5,6,7-tetrahydropyrazolo[1,5-a]pyridine-2-carboxamide]"
7,39.8,"Cc1cc(C(=O)N[C@H]2CC[C@@H](NC(=O)c3cc(F)cnc3Oc3cccc(-c4ccc(O)cc4CN4CCSCC4)c3)CC2)nn1C [Example 22, N-((1s,4s)-4-(1,5-dimethyl-1H-pyrazole-3-carboxamido)cyclohexyl)-5-fluoro-2-(4′-hydroxy-2′-(thiomorpholinomethyl)biphenyl-3-yloxy)nicotinamide]"
8,100,"C[C@@H]1CN(Cc2ccc(-c3cccc(Oc4ncc(F)cc4C(=O)N[C@H]4CC[C@@H](NC(=O)c5cn6cc(F)ccc6n5)CC4)c3)cc2)C[C@H](C)N1 [Example 67, N-((1s,4s)-4-(2-(4′-(((3S,5R)-3,5-dimethylpiperazin-1-yl)methyl)biphenyl-3-yloxy)-5-fluoronicotinamido)cyclohexyl)-6-fluoroimidazo[1,2-a]pyridine-2-carboxamide]"
9,31.6,"C[C@@H]1CN(CCCc2ccc(-c3cccc(Oc4ncc(F)cc4C(=O)N[C@H]4CC[C@@H](NC(=O)c5cn6c(n5)CCCC6)CC4)c3)cc2)C[C@H](C)N1 [Example 104, N-((1s,4s)-4-(2-(4′-(3-((3S,5R)-3,5-dimethylpiperazin-1-yl)propyl)biphenyl-3-yloxy)-5-fluoronicotinamido)cyclohexyl)-5,6,7,8-tetrahydroimidazo[1,2-a]pyridine-2-carboxamide]"
10,39.8,"C[C@@H]1CN(CCc2ccc(-c3cccc(Oc4ncc(F)cc4C(=O)N[C@H]4CC[C@@H](NC(=O)c5ccn(C)n5)CC4)c3)cc2)C[C@H](C)N1 [Example 163, 2-(4′-(2-((3S,5R)-3,5-Dimethylpiperazin-1-yl)ethyl)biphenyl-3-yloxy)-5-fluoro-N-((1s,4s)-4-(1-methyl-1H-pyrazole-3-carboxamido)cyclohexyl)nicotinamide]"
11,631,"Cc1cccc2nc(CN[C@H]3CC[C@@H](NC(=O)c4cc(F)cnc4Oc4cccc(-c5ccc(O)cc5CN5CCOCC5)c4)CC3)cn12 [Example 8, 5-fluoro-2-(4′-hydroxy-2′-(morpholinomethyl)biphenyl-3-yloxy)-N-((1s,4s)-4-((5-methylimidazo[1,2-a]pyridin-2-yl)methylamino)cyclohexyl)nicotinamide]"
12,100,"Cc1nc(C(=O)N[C@H]2CC[C@@H](NC(=O)c3cc(F)cnc3Oc3cccc(-c4ccc(CCCNCCCO)cc4)c3)CC2)cs1 [Example 136, N-((1s,4s)-4-(5-fluoro-2-(4′-(3-(3-hydroxypropylamino)propyl)biphenyl-3-yloxy)nicotinamido)cyclohexyl)-2-methylthiazole-4-carboxamide]"
13,79.4,"Cc1nc(C(=O)N[C@H]2CC[C@@H](NC(=O)c3cc(F)cnc3Oc3cccc(-c4ccc(CN(C)C)cc4CN4CCOCC4)c3)CC2)cs1 [Example 119, N-((1s,4s)-4-(2-(4′-((dimethylamino)methyl)-2′-(morpholinomethyl)biphenyl-3-yloxy)-5-fluoronicotinamido)cyclohexyl)-2-methylthiazole-4-carboxamide]"
14,20,"Cc1cccc2nc(C(=O)N[C@H]3CC[C@@H](NC(=O)c4cc(F)cnc4Oc4cccc(-c5ccc(CN6CCCN(C)CC6)cc5CN5CCOCC5)c4)CC3)cn12 [Example 185, N-((1s,4s)-4-(5-Fluoro-2-(4′-((4-methyl-1,4-diazepan-1-yl)methyl)-2′-(morpholinomethyl)biphenyl-3-yloxy)nicotinamido)cyclohexyl)-5-methylimidazo[1,2-a]pyridine-2-carboxamide]"
15,63.1,"C[C@@H]1CN(Cc2cccc(-c3cccc(Oc4ncc(F)cc4C(=O)N[C@H]4CC[C@@H](NC(=O)c5cc6ccccn6n5)CC4)c3)c2)C[C@H](C)N1 [Example 151, N-((1s,4s)-4-(2-(3′-(((3S,5R)-3,5-dimethylpiperazin-1-yl)methyl)biphenyl-3-yloxy)-5-fluoronicotinamido)cyclohexyl)pyrazolo[1,5-a]pyridine-2-carboxamide]"
16,79.4,"C[C@@H]1CN(CCCc2ccc(-c3cccc(Oc4ncc(F)cc4C(=O)N[C@H]4CC[C@@H](NC(=O)c5cc6ncccn6n5)CC4)c3)cc2)C[C@H](C)N1 [Example 143, N-((1s,4s)-4-(2-(4′-(3-((3S,5R)-3,5-dimethylpiperazin-1-yl)propyl)biphenyl-3-yloxy)-5-fluoronicotinamido)cyclohexyl)pyrazolo[1,5-a]pyrimidine-2-carboxamide]"
17,31.6,"Cc1csc(C(=O)N[C@H]2CC[C@@H](NC(=O)c3cc(F)cnc3Oc3cccc(-c4ccc(O)c(CN5C[C@@H](C)N[C@@H](C)C5)c4)c3)CC2)n1 [Example 88, N-((1s,4s)-4-(2-(3′-(((3S,5R)-3,5-dimethylpiperazin-1-yl)methyl)-4′-hydroxybiphenyl-3-yloxy)-5-fluoronicotinamido)cyclohexyl)-4-methylthiazole-2-carboxamide]"
18,25.1,"Cc1nc(C(=O)N[C@H]2CC[C@@H](NC(=O)c3cc(F)cnc3Oc3cccc(-c4ccc(CCN5CCCN(C)CC5)cc4)c3)CC2)cs1 [Example 87, N-((1s,4s)-4-(5-fluoro-2-(4′-(2-(4-methyl-1,4-diazepan-1-yl)ethyl)biphenyl-3-yloxy)nicotinamido)cyclohexyl)-2-methylthiazole-4-carboxamide]"
19,31.6,"Cc1nc(C(=O)N[C@H]2CC[C@@H](NC(=O)c3cc(F)cnc3Oc3cccc(-c4ccc(CCN5C[C@@H](C)N[C@@H](C)C5)cc4)c3)CC2)cs1 [Example 86, N-((1s,4s)-4-(2-(4′-(2-((3S,5R)-3,5-dimethylpiperazin-1-yl)ethyl)biphenyl-3-yloxy)-5-fluoronicotinamido)cyclohexyl)-2-methylthiazole-4-carboxamide]"
20,50.1,"Cc1cc(C)n2nc(C(=O)N[C@H]3CC[C@@H](NC(=O)c4cc(F)cnc4Oc4cccc(-c5ccc(CN6CCCN(CCO)CC6)cc5CN5CCOC[C@@H]5C)c4)CC3)cc2n1 [Example 179, N-((1s,4s)-4-(5-Fluoro-2-(4′-((4-(2-hydroxyethyl)-1,4-diazepan-1-yl)methyl)-2′-(((S)-3-methylmorpholino)methyl)biphenyl-3-yloxy)nicotinamido)cyclohexyl)-5,7-dimethylpyrazolo[1,5-a]pyrimidine-2-carboxamide]"
21,31.6,"Cc1cc(C(=O)N[C@H]2CC[C@@H](NC(=O)c3cc(F)cnc3Oc3cccc(-c4cccc(CCN5C[C@@H](C)N[C@@H](C)C5)c4)c3)CC2)nn1C [Example 103, N-((1s,4s)-4-(1,5-dimethyl-1H-pyrazole-3-carboxamido)cyclohexyl)-2-(3′-(2-((3S,5R)-3,5-dimethylpiperazin-1-yl)ethyl)biphenyl-3-yloxy)-5-fluoronicotinamide]"
22,39.8,"Cc1csc(C(=O)N[C@H]2CC[C@@H](NC(=O)c3cc(F)cnc3Oc3cccc(-c4ccc(CCN5CCNCC5)cc4)c3)CC2)n1 [Example 184, N-((1s,4s)-4-(5-Fluoro-2-(4′-(2-(piperazin-1-yl)ethyl)biphenyl-3-yloxy)nicotinamido)cyclohexyl)-4-methylthiazole-2-carboxamide]"
23,316,"Cc1nc(C(=O)N[C@H]2CC[C@@H](NC(=O)c3cc(F)cnc3Oc3cccc(-c4ccc(O)cc4CN4CCCCCC4)c3)CC2)cs1 [Example 23, N-((1s,4s)-4-(2-(2′-(azepan-1-ylmethyl)-4′-hydroxybiphenyl-3-yloxy)-5-fluoronicotinamido)cyclohexyl)-2-methylthiazole-4-carboxamide]"
